IC50 data for 31 compounds are collected here from US10765764B2, “Probes for imaging huntingtin protein” (CHDI Foundation, Inc., priority 2015, dated 2020).

Where only a bound is given, the exact number is not on record here.

The target in this assay is T1, Q46 protein aggregates (Homo sapiens, UniProt P42858).
T1 construct: fused on or other part: An N-terminal GST tag, cleaved off with thrombin before the assay to trigger aggregation
T1 sequence (P42858 with tags, fused parts or gaps with the stated changes, form open): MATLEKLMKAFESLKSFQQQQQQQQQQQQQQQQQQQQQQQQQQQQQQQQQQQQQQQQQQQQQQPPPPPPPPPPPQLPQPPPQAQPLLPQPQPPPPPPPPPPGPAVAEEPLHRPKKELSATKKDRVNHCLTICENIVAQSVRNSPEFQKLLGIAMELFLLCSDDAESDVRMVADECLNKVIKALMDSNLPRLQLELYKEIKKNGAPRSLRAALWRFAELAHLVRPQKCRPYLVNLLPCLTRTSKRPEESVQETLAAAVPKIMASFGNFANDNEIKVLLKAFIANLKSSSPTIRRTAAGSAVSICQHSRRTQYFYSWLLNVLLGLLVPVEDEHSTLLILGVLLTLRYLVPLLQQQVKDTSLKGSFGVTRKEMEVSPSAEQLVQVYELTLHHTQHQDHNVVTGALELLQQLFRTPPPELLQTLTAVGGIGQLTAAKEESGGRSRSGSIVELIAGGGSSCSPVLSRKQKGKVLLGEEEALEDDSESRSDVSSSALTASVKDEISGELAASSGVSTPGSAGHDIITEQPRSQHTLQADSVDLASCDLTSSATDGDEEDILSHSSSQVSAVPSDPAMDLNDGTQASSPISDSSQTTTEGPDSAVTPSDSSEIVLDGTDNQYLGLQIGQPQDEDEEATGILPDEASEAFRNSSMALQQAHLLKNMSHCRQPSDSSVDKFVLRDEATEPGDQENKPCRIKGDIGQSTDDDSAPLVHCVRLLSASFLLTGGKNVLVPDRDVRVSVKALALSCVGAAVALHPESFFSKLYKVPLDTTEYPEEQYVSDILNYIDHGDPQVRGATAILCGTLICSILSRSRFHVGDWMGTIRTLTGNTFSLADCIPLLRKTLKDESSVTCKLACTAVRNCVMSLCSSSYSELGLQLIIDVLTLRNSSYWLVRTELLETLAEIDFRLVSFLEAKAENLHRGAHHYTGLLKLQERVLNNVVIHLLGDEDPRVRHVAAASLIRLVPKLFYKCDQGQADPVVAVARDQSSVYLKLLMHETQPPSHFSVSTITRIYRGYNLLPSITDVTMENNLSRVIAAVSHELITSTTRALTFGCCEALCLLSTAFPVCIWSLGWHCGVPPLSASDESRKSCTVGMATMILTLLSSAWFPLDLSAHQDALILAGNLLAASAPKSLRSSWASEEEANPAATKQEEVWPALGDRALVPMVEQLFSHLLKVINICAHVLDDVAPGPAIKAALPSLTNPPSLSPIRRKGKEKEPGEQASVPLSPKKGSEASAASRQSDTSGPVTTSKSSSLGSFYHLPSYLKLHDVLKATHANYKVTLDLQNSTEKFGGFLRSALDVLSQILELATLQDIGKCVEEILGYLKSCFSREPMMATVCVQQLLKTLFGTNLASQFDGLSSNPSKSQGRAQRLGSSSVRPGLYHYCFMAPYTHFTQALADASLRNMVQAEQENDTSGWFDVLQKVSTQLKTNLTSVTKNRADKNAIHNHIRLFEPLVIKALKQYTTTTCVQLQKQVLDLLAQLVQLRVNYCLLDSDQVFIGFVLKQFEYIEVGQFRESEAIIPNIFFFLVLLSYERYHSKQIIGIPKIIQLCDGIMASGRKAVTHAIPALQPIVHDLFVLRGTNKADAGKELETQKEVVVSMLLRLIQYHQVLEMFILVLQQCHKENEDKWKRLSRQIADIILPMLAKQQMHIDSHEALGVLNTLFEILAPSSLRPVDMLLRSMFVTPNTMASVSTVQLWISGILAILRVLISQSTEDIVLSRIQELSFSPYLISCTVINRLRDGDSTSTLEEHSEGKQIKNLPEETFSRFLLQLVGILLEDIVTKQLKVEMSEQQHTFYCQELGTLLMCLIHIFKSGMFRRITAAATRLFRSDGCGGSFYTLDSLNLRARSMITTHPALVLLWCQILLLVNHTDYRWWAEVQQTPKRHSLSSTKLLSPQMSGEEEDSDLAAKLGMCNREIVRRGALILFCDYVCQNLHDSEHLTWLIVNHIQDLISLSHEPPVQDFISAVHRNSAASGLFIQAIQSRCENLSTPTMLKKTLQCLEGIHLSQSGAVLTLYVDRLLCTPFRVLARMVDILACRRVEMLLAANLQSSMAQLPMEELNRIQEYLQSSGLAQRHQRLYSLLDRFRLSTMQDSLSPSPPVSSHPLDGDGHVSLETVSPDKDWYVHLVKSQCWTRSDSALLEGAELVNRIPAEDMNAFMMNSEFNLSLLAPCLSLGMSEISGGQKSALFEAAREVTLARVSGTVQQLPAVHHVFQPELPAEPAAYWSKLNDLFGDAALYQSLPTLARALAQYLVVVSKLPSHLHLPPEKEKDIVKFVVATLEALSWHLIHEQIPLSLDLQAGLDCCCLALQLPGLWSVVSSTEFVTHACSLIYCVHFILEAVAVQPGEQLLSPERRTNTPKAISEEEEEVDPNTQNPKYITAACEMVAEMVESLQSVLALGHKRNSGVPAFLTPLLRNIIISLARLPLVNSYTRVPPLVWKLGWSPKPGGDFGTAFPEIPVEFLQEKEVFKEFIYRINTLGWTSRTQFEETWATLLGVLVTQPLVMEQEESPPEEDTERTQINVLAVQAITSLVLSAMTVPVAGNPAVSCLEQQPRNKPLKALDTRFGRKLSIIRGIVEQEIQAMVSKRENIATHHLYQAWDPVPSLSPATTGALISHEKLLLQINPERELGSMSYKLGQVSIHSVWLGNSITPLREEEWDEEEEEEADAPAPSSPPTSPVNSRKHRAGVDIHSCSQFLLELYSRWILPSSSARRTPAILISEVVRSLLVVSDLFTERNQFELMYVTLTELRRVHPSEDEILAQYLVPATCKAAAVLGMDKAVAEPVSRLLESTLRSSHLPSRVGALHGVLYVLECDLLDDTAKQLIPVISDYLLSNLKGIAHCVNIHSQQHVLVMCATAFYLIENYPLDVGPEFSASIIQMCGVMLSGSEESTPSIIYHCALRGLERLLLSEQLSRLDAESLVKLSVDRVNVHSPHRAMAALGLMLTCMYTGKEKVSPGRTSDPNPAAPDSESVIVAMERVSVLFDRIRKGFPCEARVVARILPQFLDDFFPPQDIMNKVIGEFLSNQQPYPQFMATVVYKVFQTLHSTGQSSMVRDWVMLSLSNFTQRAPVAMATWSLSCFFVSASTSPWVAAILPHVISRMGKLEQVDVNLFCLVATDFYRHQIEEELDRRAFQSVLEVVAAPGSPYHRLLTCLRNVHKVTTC
The assay is described as follows: Q46 Radioligand Binding Assay (RBA), displacement of [^3H3]MK-3328. The following applies: 10 nM [^3H3]MK-3328, 5 μM Q46 protein aggregates. As to the method: For radioligand binding assays (RBA) GST-Q46 protein was generated based on a previous publication (Scherzinger et al. Cell, Vol. 90, 549-558, Aug. 8, 1997). For experiments 33 μM GST-Q46 was incubated with 150 μg/mL thrombin in assay buffer (150 mM NaCl, 50 mM Tris pH 8.0) and 2 mM CaCl2 for 16 hours at 37° C. Aggregated Q46 was pelleted by centrifugation for 5 minutes at 13,000 rpm in a bench top centrifuge and re-dissolved in the same volume of assay buffer. Test compounds were prepared by titration in DMSO at 11 concentrations from 33 μM to 1 nM. For the RBA, Q46 protein aggregates and test compounds were pre-incubated in assay buffer for 20 minutes at room temperature, in 140 μL/well in a 96-well plate (pp, round bottom). Then, ligand was added in 10 μL/well and incubated for 60 minutes at 37° C. Final assay concentrations were 1 μM to 30 pM test compound, 5 μM Q46 protein (equivalent monomer concentration) and 10 nM ligand [^3H3]MK-3328 (Harrision et al., ACS Med. Chem. Lett., 2 (2011), pp 498-502). Samples were transferred onto GF/B filter plates and washed 2× with 200 μL PBS using a Filtermate Harvester. After drying filter plates for 1 hour at 37° C., the back of the plates was sealed with foil and 30 μl/well scintillation fluid (Packard MicroScint 40) was added, incubated for incubated for 15 minutes in the dark and counted in a TopCount reader. For analysis, replicate data from independent assay plates were normalized towards 0% and 100% inhibition using control wells of vehicle (0% inhibition) and 3 μM unlabelled MK-3328 (100% inhibition). IC50 values were determined with a sigmoidal inhibition model with four variables (top, bottom, slope, IC50) in a global fit using the normalized replicate data.
For the compound `COc1cc(NC(=O)c2ccn3c(n2)nc2ccccc23)cnc1OC` [N-(5,6-dimethoxypyridin-3-yl)-1,8,10-triazatricyclo[7.4.0.0^2,7]trideca-2(7),3,5,8,10,12-hexaene-11-carboxamide], the IC50 (in general, the concentration needed to halve the response being measured) was less than 100 nM.
For the compound `O=C(Nc1cccnc1)c1cn2c(n1)sc1cc(O)ccc12` [10-hydroxy-N-(pyridin-3-yl)-7-thia-2,5-diazatricyclo[6.4.0.0^2,6]dodeca-1(12),3,5,8,10-pentaene-4-carboxamide], the IC50 is less than 100 nM.
Then `COc1cncc(NC(=O)c2ccn3c(n2)nc2ccc(-c4cncc(OC)c4)cc23)c1` [N,4-bis(5-methoxypyridin-3-yl)-1,8,10-triazatricyclo[7.4.0.0^2,7]trideca-2(7),3,5,8,10,12-hexaene-11-carboxamide], with less than 100 nM.
Regarding `Cn1nc(NC(=O)c2ccn3c(n2)nc2ccccc23)ccc1=O` [N-(1-methyl-6-oxo-1,6-dihydropyridazin-3-yl)-1,8,10-triazatricyclo[7.4.0.0^2,7]trideca-2(7),3,5,8,10,12-hexaene-11-carboxamide], the IC50 was less than 100 nM.
Regarding `COc1cnc2sc3nc(C(=O)Nc4ccc(=O)n(C)n4)cn3c2c1` [11-methoxy-N-(1-methyl-6-oxo-1,6-dihydropyridazin-3-yl)-7-thia-2,5,9-triazatricyclo[6.4.0.0^2,6]dodeca-1(12),3,5,8,10-pentaene-4-carboxamide], the IC50 was less than 100 nM.
The compound `COCCOc1ccc(NC(=O)c2ccn3c(n2)nc2ccccc23)cn1` [N-[6-(2-methoxyethoxy)pyridin-3-yl]-1,8,10-triazatricyclo[7.4.0.0^2,7]trideca-2(7),3,5,8,10,12-hexaene-11-carboxamide] yielded an IC50 of less than 100 nM.
On to `COc1ccc2c(c1)nc1sc(C(=O)Nc3ccc(=O)n(C)n3)cn12` [10-methoxy-N-(1-methyl-6-oxo-1,6-dihydropyridazin-3-yl)-5-thia-2,7-diazatricyclo[6.4.0.0^2,6]dodeca-1(12),3,6,8,10-pentaene-4-carboxamide], for which the IC50 is less than 100 nM.
On to `COc1cncc(NC(=O)c2cn3c(n2)sc2cc(-c4ccccc4)ccc23)c1` [N-(5-methoxypyridin-3-yl)-10-phenyl-7-thia-2,5-diazatricyclo[6.4.0.0^2,6]dodeca-1(12),3,5,8,10-pentaene-4-carboxamide], for which the IC50 is less than 100 nM.
In the case of `COc1ccc(NC(=O)c2cn3c(n2)sc2cc(OC)ccc23)nc1` [10-methoxy-N-(5-methoxypyridin-2-yl)-7-thia-2,5-diazatricyclo[6.4.0.0^2,6]dodeca-1(12),3,5,8,10-pentaene-4-carboxamide] it was less than 100 nM; in that of `COc1ccc2c(c1)sc1nc(CNc3cccnc3)cn12` [N-({10-methoxy-7-thia-2,5-diazatricyclo[6.4.0.0^2,6]dodeca-1(12),3,5,8,10-pentaen-4-yl}methyl)pyridin-3-amine], greater than 500 nM.
With `O=C(Nc1ccc(F)nc1)c1ccn2c(n1)nc1ccccc12` [N-(6-fluoropyridin-3-yl)-1,8,10-triazatricyclo[7.4.0.0^2,7]trideca-2(7),3,5,8,10,12-hexaene-11-carboxamide], the IC50 is less than 100 nM.
Compound `O=C(Nc1cccnc1)c1cn2c(n1)sc1cc(OCCF)ccc12` [10-(2-fluoroethoxy)-N-(pyridin-3-yl)-7-thia-2,5-diazatricyclo[6.4.0.0^2,6]dodeca-1(8),3,5,9,11-pentaene-4-carboxamide] gave an IC50 of less than 100 nM.
In the case of `COc1cncc(NC(=O)c2cn3c(n2)sc2cc(OC)ccc23)c1` [10-methoxy-N-(5-methoxypyridin-3-yl)-7-thia-2,5-diazatricyclo[6.4.0.0^2,6]dodeca-1(12),3,5,8,10-pentaene-4-carboxamide] it was less than 100 nM.
Turning to `CNC(=O)c1ccc(NC(=O)c2ccn3c(n2)nc2ccccc23)cn1` [N-[6-(methylcarbamoyl)pyridin-3-yl]-1,8,10-triazatricyclo[7.4.0.0^2,7]trideca-2(7),3,5,8,10,12-hexaene-11-carboxamide], the IC50 is less than 100 nM.
`COc1ccc2c(c1)sc1nc(C(=O)N3CCc4ccncc43)cn12` [10-methoxy-4-{1H,2H,3H-pyrrolo[2,3-c]pyridine-1-carbonyl}-7-thia-2,5-diazatricyclo[6.4.0.0^2,6]dodeca-1(12),3,5,8,10-pentaene] returned an IC50 greater than 500 nM.
`COc1ccc2c(c1)sc1nc(C(=O)Nc3ccncc3)cn12` [10-methoxy-N-(pyridin-4-yl)-7-thia-2,5-diazatricyclo[6.4.0.0^2,6]dodeca-1(12),3,5,8,10-pentaene-4-carboxamide] registered an IC50 of less than 100 nM.
In the case of `COc1ccc2c(c1)sc1nc(C(=O)Nc3ccc(=O)[nH]n3)cn12` [10-methoxy-N-(6-oxo-1,6-dihydropyridazin-3-yl)-7-thia-2,5-diazatricyclo[6.4.0.0^2,6]dodeca-1(12),3,5,8,10-pentaene-4-carboxamide] it was less than 100 nM; in that of `COc1ccc2c(n1)sc1nc(C(=O)Nc3cccnc3)cn12` [10-methoxy-N-(pyridin-3-yl)-7-thia-2,5,9-triazatricyclo[6.4.0.0^2,6]dodeca-1(12),3,5,8,10-pentaene-4-carboxamide], less than 100 nM.
Turning to `COc1ccc2c(c1)sc1nc(C(=O)Nc3cncnc3)cn12` [10-methoxy-N-(pyrimidin-5-yl)-7-thia-2,5-diazatricyclo[6.4.0.0^2,6]dodeca-1(12),3,5,8,10-pentaene-4-carboxamide], the IC50 was less than 100 nM.
For `COc1cncc(NC(=O)c2cn3c(nc4cc(OC)ccc43)s2)c1` [10-methoxy-N-(5-methoxypyridin-3-yl)-5-thia-2,7-diazatricyclo[6.4.0.0^2,6]dodeca-1(12),3,6,8,10-pentaene-4-carboxamide], the concentration for half-maximal inhibition (IC50) is less than 100 nM.
Regarding `COc1cncc(NC(=O)c2cn3c(n2)sc2nc(OC)ccc23)c1` [10-methoxy-N-(5-methoxypyridin-3-yl)-7-thia-2,5,9-triazatricyclo[6.4.0.0^2,6]dodeca-1(12),3,5,8,10-pentaene-4-carboxamide], the IC50 is less than 100 nM.
The compound `COc1ccc2c(c1)sc1nc(C(=O)Nc3ccc(F)nc3)cn12` [N-(6-fluoropyridin-3-yl)-10-methoxy-7-thia-2,5-diazatricyclo[6.4.0.0^2,6]dodeca-1(12),3,5,8,10-pentaene-4-carboxamide] registered an IC50 of less than 100 nM.
Compound `COc1ccc2c(c1)sc1nc(C(=O)Nc3cnc(C)nc3)cn12` [10-methoxy-N-(2-methylpyrimidin-5-yl)-7-thia-2,5-diazatricyclo[6.4.0.0^2,6]dodeca-1(12),3,5,8,10-pentaene-4-carboxamide] had an IC50 of less than 100 nM.
As for `COc1ccc2c(c1)sc1nc(C(=O)Nc3ccc[n+]([O-])c3)cn12` [3-{10-methoxy-7-thia-2,5-diazatricyclo[6.4.0.0^2,6]dodeca-1(12),3,5,8,10-pentaene-4-amido}pyridin-1-ium-1-olate], the IC50 fell in the range of 100 to 500 nM.
Consider `COCCNC(=O)c1cn2c(n1)sc1cc(OC)ccc12` [10-methoxy-N-(2-methoxyethyl)-7-thia-2,5-diazatricyclo[6.4.0.0^2,6]dodeca-1(12),3,5,8,10-pentaene-4-carboxamide], for which the IC50 is 100 to 500 nM.
`COc1ccc2c(c1)nc1nc(C(=O)Nc3ccc(=O)n(C)n3)ccn12` [5-methoxy-N-(1-methyl-6-oxo-1,6-dihydropyridazin-3-yl)-1,8,10-triazatricyclo[7.4.0.0^2,7]trideca-2(7),3,5,8,10,12-hexaene-11-carboxamide] gave an IC50 of less than 100 nM.
In the case of `COc1ccc2c(c1)sc1nc(C(=O)Nc3cnn(C)c3)cn12` [10-methoxy-N-(1-methyl-1H-pyrazol-4-yl)-7-thia-2,5-diazatricyclo[6.4.0.0^2,6]dodeca-1(12),3,5,8,10-pentaene-4-carboxamide] it was 100 to 500 nM; in that of `O=C(Nc1ccc(=O)[nH]n1)c1ccn2c(n1)nc1ccccc12` [N-(6-oxo-1,6-dihydropyridazin-3-yl)-1,8,10-triazatricyclo[7.4.0.0^2,7]trideca-2(7),3,5,8,10,12-hexaene-11-carboxamide], less than 100 nM.
In the case of `COc1ccc2c(c1)sc1nc(C(=O)NCc3cccnc3)cn12` [10-methoxy-N-(pyridin-3-ylmethyl)-7-thia-2,5-diazatricyclo[6.4.0.0^2,6]dodeca-1(12),3,5,8,10-pentaene-4-carboxamide] it was greater than 500 nM; in that of `COc1ccc2c(c1)nc1nc(C(=O)Nc3ccncc3C#N)ccn12` [N-(3-cyanopyridin-4-yl)-5-methoxy-1,8,10-triazatricyclo[7.4.0.0^2,7]trideca-2(7),3,5,8,10,12-hexaene-11-carboxamide], less than 100 nM.
As for `O=C(Nc1cccnc1)c1ccn2c(n1)nc1ccccc12` [N-(pyridin-3-yl)-1,8,10-triazatricyclo[7.4.0.0^2,7]trideca-2(7),3,5,8,10,12-hexaene-11-carboxamide], the IC50 was greater than 500 nM.
